Results: patent US20250249110A1, “ANTIMICROBIAL PEPTIDE DERIVATIVE AND USE THEREOF” (SICHUAN UNIVERSITY, priority 2016, published 2025)
Where a SMILES comes first, the peptide text is derived from it. The star is where a group is joined. Succinyl(4-O-cholesteryl) = CC(C)CCC[C@@H](C)[C@H]1CC[C@H]2[C@@H]3CC=C4C[C@@H](OC(=O)CCC(=O)*)CC[C@]4(C)[C@H]3CC[C@]12C

Legend:
YAC-1 cells = assay: NK cell killing activity after immunization (LDH release); format: cell-based, mouse; settings: splenic lymphocytes 48 h after primary immunization
Description: Innate immunity plays an important role in anti-tumor immunity. We detected the killing activity of mouse NK cells after immunization with DP7-C adjuvant.
After 48 h of primary immunization, kill the mice by the cervical dislocation, and isolate splenic lymphocyte from the lymphocyte separation medium as effector cells.
Resuscitate and incubate YAC-1 cells, transfer one day before the experiment, and keep 2×10^6/20 ml. Stain with trypan blue. Available when activity is more than 95%.
• (1) Add target cells and effector cells into a 96-well plate (ratio of target cells to effector cells: 1:25, 1:50, 1:100, 1:200 as per 10,000 target cells per well) and incubate at 37° C. for 4 h. • (2) Centrifuge at 250 g, and take supernatant for LDH releasing test.

[1] = Critical micelle concentration by pyrene fluorescence probe spectroscopy; format: physicochemical; settings: aqueous solution
Excerpt: DP7-C can be self-assembled into micelles in aqueous solution. We detected the critical micelle concentration (CMC) of DP7-C by the pyrene fluorescence probe spectroscopy.
The fluorescence emission spectrum of pyrene in aqueous solution has five fluorescence peaks, and the ratio of the first emission spectrum light intensity I1 to the third emission spectrum light intensity I3 in aqueous solution (the ratio of fluorescence intensity at 373 nm to that at 384 nm) is about 1.8. According to the literature, the surfactant may solubilize nonpolar organic compounds, and the surfactant at different concentrations may solubilize pyrene to varying degrees. Thus, the solubilizing ability of the solution will have an obvious mutation point after the concentration of surfactant exceeds the critical micelle concentration (CMC). […] Therefore, the CMC of […] in the solution can be determined by measuring the fluorescence spectra of pyrene in DP7-C solutions with different concentrations. […] Then, detect I1 and I3 by a fluorescence spectrophotometer. Add different volumes of sample mother liquor to BD tubes containing trace pyrene to reach the concentrations of 0.0001, 0.001, 0.01, 0.025, 0.05, 0.10, 0.125, 0.25, 0.5, 1.0 and 1.5 mg/ml respectively, and determine the fluorescence spectra of each solution. […]

B16 mouse melanoma cells = assay: FAM-siRNA transfection efficiency in vitro, B16; format: cell-based; settings: FAM-siRNA 1 μg, flow cytometry
Description: In 24 h before transfection, the C26 mouse colon cancer cells or B16 mouse melanoma cells are laid in a 6-well plate with a density of 5×10^4 cells per well, and 2 ml of DMEM medium containing 20% FBS is added to each well. FAM-modified no-sense siRNA (FAM-siRNA) is used as a reporter gene to detect transfection efficiency, while PEI25K and Lipofectamin2000 are used as positive controls. During transfection, the medium is firstly replaced with 1 ml of serum-free DMEM medium. Subsequently, the gene transfection complexes mixed at different proportions are added to each well, and each complex contains 1 μg of FAM-siRNA. Among them, the ratio of siRNA/DP7-C, siRNA/PEI25K and siRNA/Lipofectamin2000 is 1:5, 1:2 and 1:2 respectively. After the medium is incubated at 37° C. for 4 h, it is replaced by DMEM medium supplemented with 20% FBS and sequentially incubated. After 24 h, the transfection is observed under a microscope and photographed. All cells in the wells including floating and adherent cells are collected, washed twice with precooled PBS, and the total fluorescence intensity of each group is counted by flow cytometer (EPICS Elite ESP, USA).

mouse PBMC = assay: Immune-related cytokine expression by Q-PCR after PBMC stimulation; format: cell-based
Description: In order to determine the changes of cytokines in mouse PBMC after DP7-C stimulation, the isolated mouse PBMC is diluted to 1×10^6 cells/mL and added to a 6-well plate at 2 ml/well, in which the stimulation concentration of DP7-C is 200 μg/ml and the stimulation time is 4 h. After stimulation, the cells are collected and stored in a −80° C. refrigerator. Meanwhile, in order to verify whether DP7-C can reverse LPS-induced inflammatory reaction, an experiment is set up to stimulate PBMC together with LPS: PBMC is diluted to 1×10^6 cells/ml and added to a 6-well plate at 2 mL/well in which the stimulation concentration of DP7-C is 200 μg/mL; after 1 h, stimulated by LPS for 4 h, and cells are collected and stored in −80° C. refrigerator. After all samples are collected, the following steps are performed, including centrifugation, washing, total RNA extraction, reverse transcription and real-time quantitative PCR.

dendritic cells (DC) = assay: Maturation of dendritic cells (flow cytometry); format: cell-based, mouse; settings: 16 h incubation; vs NS group, statistically significant
Description: The maturation of dendritic cells (DC) largely determines the immune response or tolerance of the body. […] Therefore, we detected the effect of DP7-C adjuvant on dendritic cell maturation by flow cytometry.
The experimental steps are as follows: • (1) Isolate C57/BL mouse primary bone marrow cells and incubate in the induced medium containing 10 ng/ml of GM-CSF and 10 ng/ml of IL-4 for 5 days. • (2) Add the DP7-C adjuvant into DC cell culture, mix well, and incubate for 16 h. • (3) Collect the stimulated DC cells, wash them twice with PBS, re-suspend the cells in 100 μL of PBS, add 1 μL of anti-mouse CD16/CD32, and block at 4° C. for 30 min. • (4) Wash with PBS for 3 times, add 1 μg of FITC-anti-CD80, APC-anti-CD86 and PE-anti-MHC-II, incubate at room temperature for 30 min, wash PBS for 3 times and re-suspend in 200 μL of PBS for flow cytometry.

In the case of `CC[C@H](C)[C@H](NC(=O)[C@H](CCCNC(=N)N)NC(=O)[C@H](Cc1c[nH]c2ccccc12)NC(=O)[C@H](CCC(N)=O)NC(=O)[C@@H](NC(=O)CCC(=O)O[C@H]1CC[C@@]2(C)C(=CC[C@H]3[C@@H]4CC[C@H]([C@H](C)CCCC(C)C)[C@@]4(C)CC[C@@H]32)C1)C(C)C)C(=O)N[C@@H](CCCNC(=N)N)C(=O)N[C@H](C(=O)N[C@@H](C)C(=O)N[C@H](C(=O)N[C@H](C(=O)N[C@@H](CCCNC(=N)N)C(=O)N[C@@H](CCCCN)C(N)=O)[C@@H](C)CC)C(C)C)C(C)C` [DP7-C, Chol-suc-VQWRIRVAVIRK-NH2] ({Succinyl(4-O-cholesteryl)}-VQWRIRVAVIRK-NH2), the “NK cell killing activity” value (YAC-1 cells) is reported as “slightly strong NK cell killing activity”, the “critical micelle concentration (CMC)” value [1] is reported as 3.47 µg/mL and the transfection efficiency (B16 mouse melanoma cells) is reported as 53.3 ± 4.0%. For the same compound, the “gene expression of IL-1β, MCP-1 and TNF-α” value (mouse PBMC; 200 μg/mL DP7-C together with LPS) was “significantly reduced”, the “expression of IL-1, IL-6, MCP-1, M-CSF, TNF-α and other cytokines related to immune activation” value (mouse PBMC; 200 μg/ml, 4 h) was “greatly increased” and the “expression of MHC II, CD80 and CD86” value (dendritic cells (DC)) was “increased”.
